Assay results published in article PMC5532207, “Honokiol suppresses formyl peptide-induced human neutrophil activation by blocking formyl peptide receptor 1” (Scientific Reports, 2017).

Molecular target: T1, Formyl peptide receptor 1 (FPR1) (Homo sapiens, UniProt P21462)
T1 construct: human neutrophils; also hFPR1 (NM_002029)-transfected HEK-293 and differentiated THP-1 cells
T1 sequence (P21462 1-350): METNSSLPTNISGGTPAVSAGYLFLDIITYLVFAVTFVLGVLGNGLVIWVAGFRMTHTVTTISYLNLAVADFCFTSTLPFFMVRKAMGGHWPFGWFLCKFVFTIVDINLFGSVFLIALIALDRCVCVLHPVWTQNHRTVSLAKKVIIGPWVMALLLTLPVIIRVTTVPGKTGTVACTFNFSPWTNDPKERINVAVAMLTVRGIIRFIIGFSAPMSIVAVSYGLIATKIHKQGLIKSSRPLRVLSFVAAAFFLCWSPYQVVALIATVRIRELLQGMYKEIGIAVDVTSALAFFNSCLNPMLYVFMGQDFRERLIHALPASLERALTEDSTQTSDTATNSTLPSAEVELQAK
Test: displacement of fluorescent FPR1 ligand fNLFNYK on intact cells, flow cytometry
Format: cell-based

IC50: 7.44 ± 0.97 µM
Compound: C=CCc1ccc(O)c(-c2ccc(O)c(CC=C)c2)c1 [H, Honokiol]
